Experiment [1] deals with T1, Enolase (Giardia duodenalis, UniProt E2RTS6).
T1 construct: gene GL50803_0011118; native protein in trophozoites, 445 aa
T1 sequence (E2RTS6 1-445): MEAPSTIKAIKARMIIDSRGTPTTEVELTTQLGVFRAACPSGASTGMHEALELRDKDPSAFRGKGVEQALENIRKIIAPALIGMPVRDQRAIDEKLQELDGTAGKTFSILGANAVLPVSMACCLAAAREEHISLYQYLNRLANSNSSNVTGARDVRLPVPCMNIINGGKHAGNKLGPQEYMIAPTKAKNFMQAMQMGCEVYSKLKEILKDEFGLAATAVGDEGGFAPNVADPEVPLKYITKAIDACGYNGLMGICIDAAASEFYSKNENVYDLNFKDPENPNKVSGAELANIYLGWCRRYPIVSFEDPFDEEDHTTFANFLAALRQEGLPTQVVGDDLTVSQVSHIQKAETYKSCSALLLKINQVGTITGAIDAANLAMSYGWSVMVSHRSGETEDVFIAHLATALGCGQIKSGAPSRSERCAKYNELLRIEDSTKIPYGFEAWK
The experiment in a line: click biotinylation, streptavidin pull-down from treated trophozoites, LC-MS/MS and immunoblot. Particulars: covalent; prodrug reduced in the cells; 100 uM, 2 h. The format is cell-based.

For experiment [2], the target named is T2, Arginine deiminase (ADI) (Giardia duodenalis, UniProt E2RU36).
T2 construct: gene GL50803_00112103; full-length 580 aa, C-terminal His tag (pETite C-His), E. coli BL21-CodonPlus(DE3)-RIL
T2 sequence (E2RU36 entry or part of it): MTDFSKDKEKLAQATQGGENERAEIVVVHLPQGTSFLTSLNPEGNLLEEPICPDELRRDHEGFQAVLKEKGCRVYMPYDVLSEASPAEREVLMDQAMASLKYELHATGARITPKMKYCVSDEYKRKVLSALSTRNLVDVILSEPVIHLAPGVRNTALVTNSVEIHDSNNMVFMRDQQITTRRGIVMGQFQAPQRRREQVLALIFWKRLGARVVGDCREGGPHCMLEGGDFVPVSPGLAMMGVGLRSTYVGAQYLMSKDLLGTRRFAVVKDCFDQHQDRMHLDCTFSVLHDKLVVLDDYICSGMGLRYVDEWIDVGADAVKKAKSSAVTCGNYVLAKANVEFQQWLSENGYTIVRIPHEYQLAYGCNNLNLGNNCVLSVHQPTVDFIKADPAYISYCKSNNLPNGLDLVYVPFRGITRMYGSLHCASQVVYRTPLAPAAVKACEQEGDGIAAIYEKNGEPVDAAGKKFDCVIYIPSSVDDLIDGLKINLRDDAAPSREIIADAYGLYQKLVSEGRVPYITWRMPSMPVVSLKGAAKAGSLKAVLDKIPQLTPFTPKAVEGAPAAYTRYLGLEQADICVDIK
The experiment is described as follows: colorimetric citrulline-detection assay of recombinant His-tagged ADI. The format is biochemical. Particulars: 500 uM Mz-alkyne + 1 mM dithionite (reductive activation of prodrug), 2 h; 1 mM arginine, Hepes pH 7.0, 37 C; covalent.

Experiment [3] has as its target T3, Ornithine carbamoyltransferase (OCT) (Giardia duodenalis, UniProt E2RTT6).
T3 construct: gene GL50803_0010311; native protein in trophozoites, 327 aa
T3 sequence (E2RTT6 1-327): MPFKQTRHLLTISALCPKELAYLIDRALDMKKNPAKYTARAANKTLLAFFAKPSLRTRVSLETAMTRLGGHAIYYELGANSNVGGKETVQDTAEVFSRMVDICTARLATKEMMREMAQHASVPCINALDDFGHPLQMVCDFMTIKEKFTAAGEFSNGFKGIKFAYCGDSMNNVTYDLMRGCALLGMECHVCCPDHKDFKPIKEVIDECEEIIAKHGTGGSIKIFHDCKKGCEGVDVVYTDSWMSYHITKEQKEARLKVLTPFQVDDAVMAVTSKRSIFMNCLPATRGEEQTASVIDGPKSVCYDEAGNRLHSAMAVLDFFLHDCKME
The experiment in a line: click biotinylation, streptavidin pull-down from treated trophozoites, LC-MS/MS and immunoblot. It is filed as cell-based. Particulars: covalent; prodrug reduced in the cells; 100 uM, 2 h.

As for `C#CCCn1c([N+](=O)[O-])cnc1C` [Mz-alkyne, 1-(But-3-ynyl)-2-methyl-5-nitro-1H-imidazole], the adduct result was “these proteins were labeled with biotin and thus adducted by Mz-alkyne” in experiment [1]; “these proteins were labeled with biotin and thus adducted by Mz-alkyne” in experiment [3]. Also, the inhibition result in experiment [2] was “Wild-type ADI was significantly inhibited by activated Mz-alkyne under cell-free conditions”.

Values taken from paper PMC7190177, “Click chemistry-facilitated comprehensive identification of proteins adducted by antimicrobial 5-nitroimidazoles for discovery of alternative drug targets against giardiasis” (PLoS Neglected Tropical Diseases, 2020).
